Assay results published in ChEMBL document CHEMBL1143030, “Synthesis and evaluation of 2-(2,6-dihalophenyl)-3-pyrimidinyl-1,3-thiazolidin-4-one analogues as anti-HIV-1 agents” (Bioorg Med Chem, 2007).
The source made the active and inactive calls. The calls are words filed in the database; no cut-off is given here.

Legend:
[1] = Selectivity index, ratio of CC50 for mock-infected MT4 cells to EC50 for HIV1 3B; type: functional
[2] = target: Human immunodeficiency virus type 1 reverse transcriptase (Human immunodeficiency virus 1) (UniProt Q72547); test: Inhibition of HIV1 reverse transcriptase at 10 ug/ml
[3] = tested on: Human immunodeficiency virus 1; test: Antiviral activity against HIV1 3B-induced cytopathic effect in MT4 cells assessed as inhibition of virus-induced syncytium formation; type: functional, organism-based; settings: Human immunodeficiency virus 1, 3B
[4] = target: Human immunodeficiency virus type 1 reverse transcriptase (Human immunodeficiency virus 1) (UniProt Q72547); test: Inhibition of HIV1 reverse transcriptase at 100 ug/ml
[5] = Cytotoxicity against mock-infected MT4 cells assessed as reduction of cell viability; type: cell-based; settings: human
[6] = tested on: Human immunodeficiency virus 2; test: Inhibition of HIV2 ROD replication in MT4 cells; type: functional, organism-based
[7] = Cytotoxicity against mock-infected CEM cells assessed as reduction of cell viability; type: cell-based; settings: human, mock-infected CEM (CCRF-CEM) cells
[8] = Selectivity index, ratio of CC50 for mock-infected CEM cells to EC50 for HIV1 3B; type: functional, CCRF-CEM
[9] = tested on: Human immunodeficiency virus 1; test: Antiviral activity against HIV1 3B-induced cytopathic effect in CEM cells assessed as inhibition of virus-induced syncytium formation; type: functional, organism-based; settings: Human immunodeficiency virus 1, 3B, CCRF-CEM

Row | inhibition [2] [%] | EC50 ([3]; read-out: EC50) [µM] | inhibition [4] [%] | EC50 ([3]; read-out: Log EC50 (converted)) [µM] | EC50 [9] [µM] | SMILES | Ratio CC50/EC50 [1] | CC50 [5] [µM] | Activity [6] | CC50 [7] [µM] | Ratio CC50/EC50 [8]
1 | – | 0.6 | – | – | – | Clc1cccc(Cl)c1C1SCc2nc3ccccc3n21 (configuration not stated) | 16 | 9.4 | – | – | –
2 | 99.3 | – | 100 | – | – | Cc1nc(N2C(=O)CSC2c2c(F)cccc2Cl)nc(C)c1C (configuration not stated) | – | – | – | – | –
3 | 32.3 | 5 | 38.9 | 5.01 | 4.4 | Cc1cc(C(F)(F)F)nc(N2C(=O)CSC2c2c(F)cccc2F)n1 (configuration not stated) | 25 | 125 | inactive | 140 | 32
4 | 46.3 | 1.3 | 93.7 | 1.26 | 1.1 | Cc1cc(C(F)(F)F)nc(N2C(=O)CSC2c2c(F)cccc2Cl)n1 (configuration not stated) | 13 | 16.9 | inactive | 19.3 | 18
5 | 25.4 | > 80.2 | 39.4 | – | – | O=C1CSC(c2c(Cl)cccc2Cl)N1c1nc(-c2ccccc2)cc(C(F)(F)F)n1 (configuration not stated) | <1 | 140 | inactive | – | –
6 | 47.4 | 6.4 | 54.2 | 6.31 | 5.6 | Cc1cc(-c2ccccc2)nc(N2C(=O)CSC2c2c(F)cccc2F)n1 (configuration not stated) | 6 | 36.5 | inactive | 36.5 | 6
7 | 6.6 | 4.3 | 51.9 | 3.98 | 3.8 | Cc1cc(N2C(=O)CSC2c2c(Cl)cccc2Cl)nc(C)n1 (configuration not stated) | 10 | 41.3 | inactive | 42 | 11
8 | 94.8 | – | 100 | – | – | Cc1nc(N2C(=O)CSC2c2c(Cl)cccc2Cl)nc(C)c1C (configuration not stated) | – | – | – | – | –

The next lines start with the molecule.

Row | SMILES | inhibition [2] [%] | EC50 ([3]; read-out: EC50) [µM] | inhibition [4] [%] | EC50 ([3]; read-out: Log EC50 (converted)) [µM] | EC50 [9] [µM] | Ratio CC50/EC50 [1] | CC50 [5] [µM] | Activity [6] | CC50 [7] [µM] | Ratio CC50/EC50 [8]
9 | O=C1CSC(c2c(F)cccc2Cl)N1c1nc(-c2ccccc2)cc(-c2ccccc2)n1 (configuration not stated) | 55.6 | > 242 | 66.7 | – | – | <1 | > 201 | inactive | – | –
10 | O=C1CSC(c2c(F)cccc2Cl)N1c1nc(-c2ccccc2)cc(C(F)(F)F)n1 (configuration not stated) | 43.9 | > 10.8 | 20.6 | – | – | 9 | 93.9 | inactive | – | –
11 | O=C1CSC(c2c(Cl)cccc2Cl)N1c1nc(-c2ccccc2)cc(-c2ccccc2)n1 (configuration not stated) | 31.6 | > 195 | 51.4 | – | – | <1 | 193 | inactive | – | –
12 | Cc1nc(N2C(=O)CSC2c2c(F)cccc2F)nc(C)c1C (configuration not stated) | 96.3 | 0.4 | 100 | 0.398 | 0.3 | 880 | 341 | inactive | > 373 | >1222
13 | O=C1CSC(c2c(F)cccc2F)N1c1nc(-c2ccccc2)cc(-c2ccccc2)n1 (configuration not stated) | 30.1 | > 167 | 44 | – | – | <1 | 177 | inactive | – | –
14 | Cc1cc(-c2ccccc2)nc(N2C(=O)CSC2c2c(Cl)cccc2Cl)n1 (configuration not stated) | 18 | 6.1 | 51.5 | 6.31 | 5.8 | 6 | 35.3 | inactive | 35.3 | 6
15 | Fc1cccc(F)c1C1SCc2nc3ccccc3n21 (configuration not stated) [THIAZOLOBENZIMIDAZOLE] | – | 0.35 | – | – | 1.1 | 54.5 | – | – | – | 45
16 | Cc1cc(-c2ccccc2)nc(N2C(=O)CSC2c2c(F)cccc2Cl)n1 (configuration not stated) | 32.7 | 3.9 | 79.9 | 3.98 | 3.9 | 38 | 146 | inactive | 172 | 44
17 | O=C1CSC(c2c(F)cccc2F)N1c1nc(-c2ccccc2)cc(C(F)(F)F)n1 (configuration not stated) | 15.6 | > 123 | 6.6 | – | – | <1 | 74.3 | inactive | – | –
18 | Cc1cc(N2C(=O)CSC2c2c(F)cccc2F)nc(C)n1 (configuration not stated) | 27.2 | 25.5 | 58.1 | 25.1 | 20.3 | 11 | 272 | inactive | 272 | 13
19 | Cc1cc(N2C(=O)CSC2c2c(F)cccc2Cl)nc(C)n1 (configuration not stated) | 9.3 | 4.3 | 48.6 | 3.98 | 4.1 | 11 | 47.6 | inactive | 47.6 | 12
20 | Cc1cc(C(F)(F)F)nc(N2C(=O)CSC2c2c(Cl)cccc2Cl)n1 (configuration not stated) | 32.9 | 1 | 43.7 | 1 | 0.8 | 46 | 46.4 | inactive | 46.7 | 62
